Assay results reported in the supplement of paper PMC11061612.

Assays:
Experiment in all cases: combination Emax (second highest fraction inhibited in the dose matrix, 72 h); higher = more inhibition; extreme values may be limits of the assay
[1] = test system: SW48 (Colorectal Carcinoma)
Outline: (§1)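 Bliss excess equals the observed combination effect minus the expected value EA + EB − EA·EB, where EA and EB are the effects of each agent alone. Combination Emax is the second-highest inhibition within the matrix. Inhibition was scaled from CellTiter-Glo 2.0 luminescence, with 0 set by vehicle wells and 1 by blank wells, after 72 hours of two-drug dosing of cells plated in 1536-well plates.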

Saos-2 (Osteosarcoma) = test system: Saos-2 (Osteosarcoma)
Outline: as §1

[2] = test system: HCT-116 (Colorectal Carcinoma)
Outline: as §1

[3] = test system: SLVL (B-Cell Non-Hodgkin's Lymphoma)
Outline: as §1

[4] = test system: SNU-61 (Colorectal Carcinoma)
Outline: as §1

A172 (Glioblastoma) = test system: A172 (Glioblastoma)
Outline: as §1

[5] = test system: NOMO-1 (Acute Myeloid Leukemia)
Outline: as §1

[6] = test system: ETK-1 (Biliary Tract Carcinoma)
Outline: as §1

[7] = test system: U-118-MG (Low Grade Glioma)
Outline: as §1

[8] = test system: P31-FUJ (Acute Myeloid Leukemia)
Outline: as §1

[9] = test system: MEG-01 (Chronic Myelogenous Leukemia)
Outline: as §1

[10] = test system: BICR78 (Oral Cavity Carcinoma)
Outline: as §1

MCF7 (Breast Carcinoma) = test system: MCF7 (Breast Carcinoma)
Outline: as §1

[11] = test system: TYK-nu (Ovarian Carcinoma)
Outline: as §1

[12] = test system: RCC10RGB (Kidney Carcinoma)
Outline: as §1

[13] = test system: 647-V (Bladder Carcinoma)
Outline: as §1

[14] = test system: WSU-DLCL2 (B-Cell Non-Hodgkin's Lymphoma)
Outline: as §1

HCC38 (Breast Carcinoma) = test system: HCC38 (Breast Carcinoma)
Outline: as §1

[15] = test system: SKN-3 (Head and Neck Carcinoma)
Outline: as §1

[16] = test system: SK-LMS-1 (Other Solid Carcinomas)
Outline: as §1

SMILES | combination Emax [1] | combination Emax (Saos-2 (Osteosarcoma)) | combination Emax [2] | combination Emax [3] | combination Emax [4] | combination Emax (A172 (Glioblastoma)) | combination Emax [5] | combination Emax [6] | combination Emax [7] | combination Emax [8] | combination Emax [9] | combination Emax [10] | combination Emax (MCF7 (Breast Carcinoma)) | combination Emax [11] | combination Emax [12] | combination Emax [13] | combination Emax [14] | combination Emax (HCC38 (Breast Carcinoma)) | combination Emax [15] | combination Emax [16]
CN(CCO)CC[C@H](CSc1ccccc1)Nc1ccc(S(=O)(=O)NC(=O)c2ccc(N3CCC([C@@H](O)c4ccccc4-c4ccc(Cl)cc4)CC3)cc2)cc1S(=O)(=O)C(F)(F)F [AZD4320] + C[C@@H]1COCCN1C2=NC(=NC(=C2)C3(CC3)[S@](=N)(=O)C)C4=C5C=CNC5=NC=C4 [AZD6738] (first compound max 1 µM, 7x7, partner max 10 µM) | 0.954 | 0.673 | 0.778 | 0.94 | 0.365 | 0.731 | 0.972 | 0.675 | 0.878 | 0.994 | 0.983 | 0.774 | 0.656 | 0.803 | 0.492 | 0.816 | 0.989 | 0.933 | 0.546 | 0.866
CN(CCO)CC[C@H](CSc1ccccc1)Nc1ccc(S(=O)(=O)NC(=O)c2ccc(N3CCC([C@@H](O)c4ccccc4-c4ccc(Cl)cc4)CC3)cc2)cc1S(=O)(=O)C(F)(F)F [AZD4320] + C[C@@H](Nc1cc(F)cc(F)c1)c1cc(C(=O)N(C)C)cc2c(=O)cc(N3CCOCC3)oc12 [AZD8186] (first compound max 1 µM, 7x7, partner max 3 µM) | 0.914 | 0.478 | 0.686 | 0.955 | 0.162 | 0.327 | 0.636 | 0.324 | 0.812 | 0.543 | 0.773 | 0.446 | 0.544 | 0.645 | 0.507 | 0.989 | 0.978 | 0.884 | 0.277 | 0.94
CN(CCO)CC[C@H](CSc1ccccc1)Nc1ccc(S(=O)(=O)NC(=O)c2ccc(N3CCC([C@@H](O)c4ccccc4-c4ccc(Cl)cc4)CC3)cc2)cc1S(=O)(=O)C(F)(F)F [AZD4320] + Cc1cc2ncnn2cc1Nc1ncc2c(n1)n(C1CCOCC1)c(=O)n2C [AZD7648] (first compound max 1 µM, 7x7, partner max 10 µM) | 0.632 | 0.21 | 0.229 | 0.605 | 0.107 | 0.262 | 0.475 | 0.209 | 0.351 | 0.858 | 0.925 | 0.198 | 0.367 | 0.344 | 0.265 | 0.219 | 0.744 | 0.873 | 0.0826 | 0.447
COc1nnc2ccc(N3CCC(c4ccc(OCCN5CCN(C)C(=O)[C@H]5C)cc4)CC3)nn12 [AZD5153] + C=CCn1c(=O)c2cnc(Nc3ccc(N4CCN(C)CC4)cc3)nc2n1-c1cccc(C(C)(C)O)n1 [AZD1775] (first compound max 1 µM, partner max 1 µM) | 0.66 | 0.854 | 0.788 | 0.738 | 0.601 | 0.543 | 0.983 | 0.576 | 0.467 | 0.97 | 0.945 | 0.482 | 0.684 | 0.772 | 0.686 | 0.637 | 0.996 | 0.433 | 0.634 | 0.592
COc1nnc2ccc(N3CCC(c4ccc(OCCN5CCN(C)C(=O)[C@H]5C)cc4)CC3)nn12 [AZD5153] + CC1(C)CCC(CN2CCN(c3ccc(C(=O)NS(=O)(=O)c4ccc(NCC5CCOCC5)c([N+](=O)[O-])c4)c(Oc4cnc5[nH]ccc5c4)c3)CC2)=C(c2ccc(Cl)cc2)C1 [Venetoclax] (first compound max 1 µM, 7x7, partner max 1 µM) | 0.631 | 0.535 | 0.666 | 0.802 | 0.389 | 0.479 | 1 | 0.445 | 0.367 | 0.974 | 0.889 | 0.468 | 0.669 | 0.571 | 0.539 | 0.463 | 1 | 0.458 | 0.467 | 0.507
COc1nnc2ccc(N3CCC(c4ccc(OCCN5CCN(C)C(=O)[C@H]5C)cc4)CC3)nn12 [AZD5153] + CCN(CCO)CCCOc1ccc2c(Nc3cc(CC(=O)Nc4cccc(F)c4)[nH]n3)ncnc2c1 [AZD2811] (first compound max 1 µM, 7x7, partner max 1 µM) | 0.912 | 0.601 | 0.759 | 0.696 | 0.429 | 0.574 | 0.961 | 0.463 | 0.362 | 0.982 | 0.895 | 0.542 | 0.653 | 0.657 | 0.565 | 0.545 | 0.942 | 0.426 | 0.462 | 0.548
